Measurements: US20240301408A1, “MICRORNA 195 COMPOSITIONS AND METHODS FOR TREATING COGNITIVE IMPAIRMENT” (UNITED STATES GOVERNMENT AS REPRESENTED BY THE DEPARTMENT …, priority 2021, published 2024)

Experiments:
[1] = system: microglia-specific gene profiles, E4FAD mouse brain; experiment: scRNA-seq of EFAD mouse brains with miR-195-5p over-expression; format: in vivo; details: Mic.C0 and Mic.C2 microglial sub-clusters; N=4 pooled mice/condition
Description: Changes in microglia-specific gene profiles with miR-195-5p over-expression in E4FAD mouse brain. scRNA-seq analysis of EFAD mouse brains with miR-195-5p over-expression was performed (FIG. 15; N=4 pooled mice/condition). Single cell suspensions were prepared and processed with the 10× Genomics Chromium platform. After quality control (QC), the gene-level UMIs data were normalized by a regularized negative binomial regression analysis (Hafemeister, C. & Satija, R. Genome Biology 20, 296, (2019)). Genes were selected that were detected in more than one cell and cells with sequencing reads in 200˜4,000 genes and mitochondrial read rate of less than 50%. […] The significant principal components as determined by a JackStraw permutation procedure were selected for cell clustering using Seurat's graph-based clustering approach (Butler, A., et al. Nature Biotechnology 36, 411, (2018)). […] After removing predicted doublets from the clusters, the cluster marker genes were observed and the expression patterns of known gene markers were analyzed to annotate clusters into major cell-types: excitatory neurons (Ex; marked by NRGN), inhibitory neurons (In; GAD1), astrocytes (Ast; AQP4, GFAP), oligodendrocytes (Oli; PLP1, MBP), microglia (Mic; CSF1R, CD74), oligodendrocyte progenitor cells (Opc; VCAN), and endothelial cells (End; FLT1). […]

[2] = system: synj1; experiment: brain synj1 mRNA and protein levels in ApoE KI mice after miR-195 over-expression; format: in vivo, mouse
Description: (§1) Stereotaxic injection and behavior studies. Eight to nine weeks old male and female ApoE3^+/+ and ApoE4^+/+ KI mice without 5×FAD background (N=19-23/group), or with 5×FAD background (N=15-17/group) were placed in the stereotaxic apparatus with AAV2 or scramble virus administered into the dorsal CA1 regions of bilateral hippocampal brain regions using pressure injection (Labonte B et al., Nat Med 2017, and Passini M A et al., The Journal of neuroscience 2006). Injection volumes (0.5-2.0 μl) were delivered over 10 min to avoid tissue damage. Six to nine months after viral delivery, mice were tested with the NOR task (Zhu L et al., Proc Natl Acad Sci USA 2015, Elder G A et al., J Neurotrauma 2012, and Howlett D R et al., Brain Res 2004). Mice were randomized for genotype and sex, and blinded throughout the behavior data collection and analysis, surgical manipulations, and sample collection.
Brain and neuronal sample preparation and biochemical analysis. Snap-frozen mouse hemi-brains or cultured neurons were harvested in lysis buffer (Lane R F et al., The Journal of neuroscience 2010) and processed via step-wise solubilization (Lane R F et al., The Journal of neuroscience 2010, and Kawarabayashi T et al. The Journal of neuroscience 2001) followed by SDS-PAGE to determine levels of synj1, dyn1, holoAPP, and CTFs. Levels of Aβ42, Aβ40, pTau, Tau and ApoE were determined using high-sensitive ELISA kits. Some tissue was used for miRNA and RNA extraction followed by qPCR and RNA-seq analysis. […]
Statistical analysis. […] Levels of miR-195-5p and miR-374 were normalized to U6 and RNU6B (internal controls) while synj1 mRNA normalized to GAPDH and 18s, and then expressed as Log2fold of changes when compared to controls. Levels of synj1, dyn1, pTau, Tau, and holoAPP were normalized to β-actin levels and expressed as a percentage of the control. Absolute Aβ42, Aβ40, pTau, Tau, and ApoE concentrations were quantitatively determined by ELISA and expressed as a percentage of the control. […] Pearson correlation coefficients were calculated to determine the linear relationship between the two variables. […]

[3] = system: ApoE4+/+ FAD mice; experiment: novel object recognition (NOR) after hippocampal AAV2 injection, ApoE KI mice with 5xFAD background (EFAD); format: in vivo, mouse; details: male ApoE4+/+ FAD mice
Text: (§2) Animal models. Human ApoE4^+/+ or ApoE3^+/+ knock-in (KI) mouse models without (Grootendorst J et al., Behavioural brain research 2005, Rodriguez G A et al., Learn Mem 2013, and Wang C et al., Neurobiology of disease 2005) or with 5×FAD background (Balu D et al., Neurosci Lett 2019, and Tai L M et al., J Lipid Res 2017) were genotyped (Zhong L et al., Mol Neurodegener 2016). Sex as a biological variable was taken into considerations with inclusion of both male and female mice in the experiments.
as §1

[4] = system: ApoE4+/+ or ApoE3+/+ knock-in (KI) mice; experiment: novel object recognition (NOR) after hippocampal AAV2 injection, ApoE KI mice; format: in vivo, mouse
Text: as §2, §1

In the case of “UAGCAGCACAGAAAUAUUGGC (chemistry not given here) [miR-195-5p, over-expressed via AAV2-containing miR-195-5p from ABM Inc]”, the “top GO pathways enriched with microglial sub-cluster DEGs” value [1] is reported as “down-regulates innate immune system and effector responses”, the “synj1 mRNA and protein levels” value ([2]; ApoE3+/+ mouse brains) is reported as “Trends of reduction” and the “synj1 mRNA” value ([2]; ApoE4+/+ mouse brains, scramble controls 0.52) is reported as −1.29 Log 2FC. The synj1 protein ([2]; ApoE4+/+ mouse brains, scramble controls 77.7) was 56.4 % of control, the NOR preference index ([3]; scramble controls 37.8%) was 63.1% and the NOR discrimination index ([3]; scramble controls -0.245) was 0.262. The “NOR, scramble versus miR-195-5p over-expressing animals” value ([4]; ApoE3+/+ KI mice) was “no statistically significant differences”, the NOR preference index ([4]; ApoE4+/+ KI mice, viral delivery to bilateral hippocampi, scramble controls 42.9%) was 61.5% and the NOR discrimination index ([4]; ApoE4+/+ KI mice, scramble controls −0.144) was 0.231.
